In patent publication US20230390319A1, “INTERFERON GENE STIMULATOR COMPOSITION COMPRISING INDOLIZINE DERIVATIVE AS ACTIVE INGREDIENT” (AJOU UNIVERSITY INDUSTRY-ACADEMIC COOPERATION FOUNDATION, priority 2020, published 2023):
Read-outs that look alike come from different tables or passages of the source.

How the values were obtained:
IRF3, STAT1 = assay: Western blot analysis of TBK, IRF3 and STAT1 activity; assay type: cell-based; settings: induced by cGAMP, FIG. 5
Experimental: Cells were cultured and lysed in RIPA buffer containing a protease and phosphatase inhibitor cocktail (Thermo Fisher Scientific) and benzonase nuclease (Sigma). After centrifugation, the supernatant was collected, and the amount of protein was measured using a BCA protein assay kit (Thermo Fisher Scientific). Cell lysates were analyzed by SDS-PAGE using an acrylamide gel. After SDS-PAGE, proteins were transferred to a PVDF membrane, blocked with 5% BSA, and then washed with TBST. The membrane was incubated with primary antibodies (anti-STING, anti-pSTING, anti-TBK, anti-pTBK, anti-IRF3, anti-pIRF3, anti-STAT1, anti-pSTAT1, and anti-actin) overnight at 4° C. After washing with TBST, the membrane was treated with HRP-conjugated secondary antibodies at room temperature for 1 hour. The membrane was washed with TBST and treated with ECL solution (Thermo Fisher Scientific). Chemical fluorescence images were taken with ChemiDOC (Bio-Rad).

ISRE reporter signal = assay: ISRE luciferase reporter assay, THP-1 cells co-treated with compound and cGAMP; assay type: cell-based, Human
Experimental: Human monocytic THP-1 wild-type (WT) and STING knockout (KO) cell lines were obtained from InvivoGen. Cells were cultured in 1×RPMI 1640 medium containing 10% fetal bovine serum (FBS, Hyclone), 2.05 mM L-glutamine (Hyclone) and 1% penicillin (Corning) in a humidified incubator at 37° C. under 5% CO2.
To confirm immune responses, THP-1 cells were placed in 384-well plates (Grenier), and treated with each compound and cGAMP (1 μg/ml), and after 24 hours, ISRE activity was analyzed. QUANTI-Luc assay (InvivoGen) was performed using the cell culture supernatant to confirm the luciferase reporter gene signal. Fluorescent signals were measured using a TECAN micro plate reader SPARK, and the results were normalized to DMSO control.
THP-1 cells were co-treated with each of 86 indolizine derivatives and a very small amount of cGAMP (1 μg/ml), the immune response of the THP-1 cells was examined by ISRE reporter assay, and the cytotoxicity of co-treatment was also evaluated (Table 1). All results were compared by normalization to the reporter assay results obtained by treatment with cGAMP alone. […] Thus, Compound 42 was used in subsequent experiments.

[1] = PK profiles after IV and PO administration to BALB/c mice; assay type: in vivo; settings: BALB/c, mouse, blood; for concentration at 0.5 h: 0.50 h; for AUC(0-t): read-out: AUClast AUC(0-t); for C0: read-out: C0; for Cmax: read-out: Cmax; for MRT inf: read-out: MRTINF_obs MRT(0-∞); for MRT last: read-out: MRTlast MRT(0-t)
From the text: The pharmacokinetics and oral bioavailability of Compound 42 were investigated in mice following single intravenous (IV) injection and oral administration (PO).

[2] = iv, 5 mg/kg, IV 5 mg/kg, individual animals 101-103, read-out: concentration in blood
[3] = iv, 5 mg/kg, IV 5 mg/kg, mean, read-out: concentration in blood, Mean IV
[4] = iv, 5 mg/kg, IV 5.0 mg/kg, individual animals
[5] = iv, 5 mg/kg, IV 5.0 mg/kg, mean n=3
[6] = po, 20 mg/kg, PO 20 mg/kg, individual animals 201-203, read-out: concentration in blood
[7] = po, 20 mg/kg, PO 20 mg/kg, mean, read-out: concentration in blood, Mean PO

- bioavailability ([1]; 20 mg/kg, PO administration of 20 mpk): ~18%
- concentration at 0.083 h [1, 2]: 2590 ng/mL
- concentration at 0.083 h [1, 3]: 2750 ng/mL
- concentration at 0.25 h [1, 2]: 1520 ng/mL
- concentration at 0.25 h [1, 3]: 1420 ng/mL
- concentration at 0.5 h [1, 2]: 803 ng/mL
- concentration at 0.5 h [1, 3]: 820 ng/mL
- concentration at 1 h [1, 2]: 379 ng/mL
- concentration at 1 h [1, 3]: 350 ng/mL
- concentration at 4 h [1, 2]: 97.9 ng/mL
- concentration at 4 h [1, 3]: 107 ng/mL
- concentration at 24 h [1, 2]: 29.2 ng/mL
- concentration at 24 h [1, 3]: 34.9 ng/mL
- AUC(0-inf) ([1]; iv, 5 mg/kg, IV 5.0 mg/kg, individual animals, read-out: AUCINF_obs AUC(0-∞)): 3420 ng·h/mL
- AUC(0-t) [1, 4]: 3160 ng·h/mL
- C0 [1, 4]: 3380 ng/mL
- clearance ([1]; iv, 5 mg/kg, IV 5.0 mg/kg, individual animals, read-out: Cl_obs Cl (converted)): 24.4 mL/min/kg
- Cmax [1, 4]: 2590 ng/mL
- half-life ([1]; iv, 5 mg/kg, IV 5.0 mg/kg, individual animals, read-out: HL_Lambda_z T1/2 (converted)): 6.03 h
- MRT inf [1, 4]: 6.07 h
- MRT last [1, 4]: 3.93 h
- Vd ([1]; iv, 5 mg/kg, IV 5.0 mg/kg, individual animals, read-out: Vss_obs Vss): 8.88 L/kg
- Vd ([1]; iv, 5 mg/kg, IV 5.0 mg/kg, individual animals, read-out: Vz_obs Vz): 12.7 L/kg
- AUC(0-inf) ([1]; iv, 5 mg/kg, IV 5.0 mg/kg, mean n=3, read-out: AUCINF_obs AUC(0-∞)): 3700 ng·h/mL
- AUC(0-t) [1, 5]: 3300 ng·h/mL
- C0 [1, 5]: 3830 ng/mL
- clearance ([1]; iv, 5 mg/kg, IV 5.0 mg/kg, mean n=3, read-out: Cl_obs Cl (converted)): 22.7 mL/min/kg
- Cmax [1, 5]: 2750 ng/mL
- half-life ([1]; iv, 5 mg/kg, IV 5.0 mg/kg, mean n=3, read-out: HL_Lambda_z T1/2 (converted)): 7.76 h
- MRT inf [1, 5]: 7.6 h
- MRT last [1, 5]: 4.27 h
- Vd ([1]; iv, 5 mg/kg, IV 5.0 mg/kg, mean n=3, read-out: Vss_obs Vss): 10.2 L/kg
- Vd ([1]; iv, 5 mg/kg, IV 5.0 mg/kg, mean n=3, read-out: Vz_obs Vz): 15 L/kg
- AUC(0-inf) ([1]; iv, 5 mg/kg, IV administration of 5 mg/kg (mpk), read-out: AUC∞): 3700 ng·h/mL
- Cmax ([1]; iv, 5 mg/kg, IV administration of 5 mg/kg (mpk)): 2750 ng/mL
- half-life ([1]; iv, 5 mg/kg, IV administration of 5 mg/kg (mpk), read-out: half-life (converted)): ~7.76 h
- clearance ([1]; iv, 5 mg/kg, IV administration, read-out: mean blood clearance): 22.7 mL/min/kg
- Vd ([1]; iv, 5 mg/kg, IV administration, read-out: mean volume of distribution at steady state (Vss)): 10.2 L/kg
- concentration at 0.25 h [1, 6]: 75.3 ng/mL
- concentration at 0.25 h [1, 7]: 89.9 ng/mL
- concentration at 0.5 h [1, 6]: 139 ng/mL
- concentration at 0.5 h [1, 7]: 156 ng/mL
- concentration at 1 h [1, 6]: 211 ng/mL
- concentration at 1 h [1, 7]: 225 ng/mL
- concentration at 3 h [1, 6]: 149 ng/mL
- concentration at 3 h [1, 7]: 161 ng/mL
Structure (SMILES): CC(=O)c1ccc(-c2cc(C(=O)c3ccc(C(F)(F)F)cc3)n3ccccc23)cc1 [Compound 42]
- phosphorylation of IRF3 and STAT1 (IRF3, STAT1): increased phosphorylation of IRF3 and phosphorylation of STAT1
- ISRE reporter effect in WT cell line (ISRE reporter signal; THP-1 WT, co-treatment with cGAMP, FIG. 1): increased effect
- Normalized RU (relative unit of ISRE reporter signal) (ISRE reporter signal; THP-1 cells, 20 μM of each compound, co-treated with cGAMP (1 μg/ml), 24 hours): 9.32
- efficacy in ISRE reporter assay (ISRE reporter signal; co-administered with cGAMP, among 86 indolizine derivatives): highest efficacy
